The text below walks through data of paper PMC9000871, “Rhodamine 101 Conjugates of Triterpenoic Amides Are of Comparable Cytotoxicity as Their Rhodamine B Analogs” (Molecules, 2022).

The test system of one experiment is A375 (melanoma). Briefly: SRB cytotoxicity assay, A375. Type of experiment: cell-based, human. The settings on record: mean ± standard mean error. An excerpt:
(§1) The cell lines were obtained from Department of Oncology (Martin-Luther-University Halle Wittenberg; they were bought from ATCC; A 375 (CRL-1619), HT29 (HTB-38), MCF7 (HTM-22), A2780 (HTP-77), FaDu (HTP-43), NIH 3T3 (CRL-1658), HEK-293 (CRL-1573)). Cultures were maintained as monolayers in RPMI 1640 medium with L-glutamine (Capricorn Scientific GmbH, Ebsdorfergrund, Germany) supplemented with 10% heat inactivated fetal bovine serum (Sigma-Aldrich Chemie GmbH, Steinheim, Germany) and penicillin/streptomycin (1%, Capricorn Scientific GmbH, Ebsdorfergrund, Germany) at 37 °C in a humidified atmosphere with 5% CO2. The cytotoxicity of the compounds was evaluated using the sulforhodamine-B (Kiton-Red S, ABCR) micro culture colorimetric assay using confluent cells in 96-well plates with the seeding of the cells on day 0 applying appropriate cell densities to prevent confluence of the cells during the period of the experiment. On day 1, the cells were treated with six different concentrations (1, 3, 7, 12, 20, and 30 μM); thereby, the final concentration of DMSO was always <0.5%, generally regarded as non-toxic to the cells. On day 4, the supernatant medium was discarded; the cells were fixed with 10% trichloroacetic acid. After another day at 4 °C, the cells were washed in a strip washer and dyed with the SRB solution (100 μL, 0.4% in 1% acetic acid) for about 20 min to be followed by washing of the plates (four times, 1% acetic acid) and air-drying overnight. Furthermore, tris base solution (200 μL, 10 mM) was added to each well and absorbance was measured at λ = 570 nm employing a reader (96 wells, Tecan Spectra, Crailsheim, Germany). The EC50 values were averaged from three independent experiments performed each in triplicate calculated from semi logarithmic dose response curves applying a non-linear four-parameter Hills-slope equation (GraphPad Prism5; variables top and bottom were set to 100 and 0, respectively).

The subject of experiment [1] is NIH 3T3 (fibroblasts), non-malignant. Briefly: SRB cytotoxicity assay, NIH 3T3. The following applies: Mus musculus, mean ± standard mean error. Type of experiment: cell-based.
Description: as §1
(In general: The SRB assay estimates cell density from bound dye.)

Experiment [2] has as its system A2780 (ovarian carcinoma). Nature of the experiment: SRB cytotoxicity assay, A2780. Type of experiment: cell-based. The following applies: Homo sapiens, 72 h of treatment, mean ± standard mean error.
Description: as §1

For experiment [3], the system named is HT29 (colon adenocarcinoma). Nature of the experiment: SRB cytotoxicity assay, HT29. Type of experiment: cell-based, human. The following applies: Homo sapiens, mean ± standard mean error.
Description: as §1

In experiment [4] the test system is FaDu (hypopharyngeal carcinoma). Briefly: SRB cytotoxicity assay, FaDu. The following applies: Homo sapiens, 72 h of treatment, mean ± standard mean error. Type of experiment: cell-based.
Description: as §1

The test system of experiment [5] is MCF-7 (breast adenocarcinoma). Nature of the experiment: SRB cytotoxicity assay, MCF-7. The following applies: Homo sapiens, MCF7, 72 h of treatment, mean ± standard mean error. The class given is cell-based.
Description: as §1

For experiment [6], the system named is human tumor cell lines (A375, HT29, MCF-7, A2780, FaDu). Briefly: SRB cytotoxicity assay, statements across the cell line panel. Type of experiment: cell-based. The following applies: span over all cell lines tested, cut-off of the assay 30 µM.
Description: as §1, with “On day 1, the cells were treated with six different concentrations (1, 3, 7, 12, 20, and 30 μM); thereby, the final concentration of DMSO was always <0.5%, generally regarded as non-toxic to the cells. On day 4, the supernatant medium was discarded; the cells were fixed with 10% trichloroacetic acid. After another day at 4 °C, the cells were washed in a strip washer and dyed with the SRB solution (100 μL, 0.4% in 1% acetic acid) for about 20 min to be followed by washing of the plates (four times, 1% acetic acid) and air-drying overnight.” left out

For the next experiment, the system named is HeLa (cervical cancer). Nature of the experiment: SRB cytotoxicity assay, HeLa. The class given is cell-based. The settings on record: Homo sapiens, 72 h of treatment, mean ± standard mean error.
Experiment [7] deals with HEK293 (human embryonic kidney), non-malignant. Briefly: SRB cytotoxicity assay, HEK293. The class given is cell-based. The settings on record: 72 h of treatment, mean ± standard mean error.
Description: as §1

[8] abbreviates: Homo sapiens, A-375, 72 h, 72 h of treatment.
The mark [9] stands for this setting: NIH3T3, 72 h, 72 h of treatment.

The EC50 is the concentration needed to bring the measured effect to its halfway point. A low value points to a more potent agent.

Structures are written as SMILES. Where only a bound is given, the exact number is not on record here.

Turning to `C=C(C)[C@@H]1CC[C@]2(C(=O)O)CC[C@]3(C)[C@H](CC[C@@H]4[C@@]5(C)CC[C@H](OC(C)=O)C(C)(C)[C@@H]5CC[C@]43C)[C@@H]12` [compound 1, 3β-Acetyloxy-lup-20(29)-en-28-oic Acid], the EC50 was 19.2 ± 1.7 µM in the experiment on A375 (melanoma) (72 h of treatment); 21.3 µM in the experiment with A375 (melanoma) (setting [8]); over 30 µM in experiment [1] (setting [9]); 18.3 ± 0.5 µM in experiment [2]; 21.3 ± 2 µM in experiment [3] (HT-29, 72 h, 72 h of treatment); 7.2 ± 1.2 µM in experiment [4]. The molecule also yielded a concentration giving a half-maximal response (EC50) in experiment [5] of 11 ± 0.5 µM.

Regarding `CC(=O)O[C@H]1CC[C@@]2(C)C(CC[C@]3(C)C2CC=C2C4CC(C)(C)CC[C@]4(C(=O)O)CC[C@]23C)C1(C)C` (stereo partly drawn) [compound 2, 3β-Acetyloxy-olean-12-en-oic Acid], the EC50 is 13 ± 1.1 µM in the experiment on A375 (melanoma) (Homo sapiens, A-375, 72 h of treatment); 17.5 ± 1.5 µM in [1] (NIH3T3, 72 h of treatment); 9.4 ± 0.5 µM in experiment [2]; 20.5 ± 1.7 µM in [3] (HT-29, 72 h of treatment); 11.8 ± 0.9 µM in [4]; 12.9 ± 1.9 µM in experiment [5].

Turning to `CC(=O)O[C@H]1CC[C@@]2(C)C(CC[C@]3(C)C2CC=C2C4[C@@H](C)[C@H](C)CC[C@]4(C(=O)O)CC[C@]23C)C1(C)C` (stereo partly drawn) [compound 3, 3β-Acetyloxy-urs-12-en-oic Acid], the EC50 in the experiment with A375 (melanoma) (setting [8]) is 11.4 ± 1.4 µM; in [1] (setting [9]) it was 16.4 ± 1.7 µM; in [2] it was 8.3 ± 0.9 µM; in [3] (HT-29, 72 h, 72 h of treatment), 17.3 ± 1.5 µM; in [4] it was 10.7 ± 0.8 µM; in experiment [5], 12.1 ± 1.2 µM.

In the case of `CC(=O)O[C@H]1CC[C@@]2(C)C(CC[C@]3(C)C2CCC2C4[C@H](C(C)=O)CC[C@]4(C(=O)O)CC[C@]23C)C1(C)C` (stereo partly drawn) [compound 4, 3β-Acetyloxy-20-oxo-30-norlupan-28-oic Acid], the “EC50 values across the cell lines” value in experiment [6] is recorded as “not cytotoxic at all within the limits of the assay”. Further, the EC50 with A375 (melanoma) (setting [8]) is over 30 µM; in [1] (setting [9]), over 30 µM; in experiment [2], over 30 µM; in experiment [3] (HT-29, 72 h, 72 h of treatment), over 30 µM; in experiment [4], over 30 µM; in experiment [5] it was over 30 µM.

For `CC(=O)O[C@H]1CC[C@@]2(C)C(CC[C@]3(C)C2CC=C2C4CC(C)(C)CC[C@]4(C(=O)N4CCCN(C(=O)c5ccccc5C5=c6cc7c8c(c6Oc6c5cc5c9c6CCCN9CCC5)CCC[N+]=8CCC7)CC4)CC[C@]23C)C1(C)C` (some centres unmarked) [compound 26], the EC50 is 0.07 ± 0.01 µM with A375 (melanoma) (setting [8]); 100 ± 50 nM with HeLa (cervical cancer); 0.26 ± 0.05 µM in [1] (setting [9]); 0.07 ± 0.03 µM in [2]; 50 ± 10 nM in experiment [7]; 0.13 ± 0.03 µM in experiment [3] (HT-29, 72 h, 72 h of treatment). Further, the EC50 in experiment [5] was 0.12 ± 0.03 µM.

For the molecule `CC(=O)O[C@H]1CC[C@@]2(C)C(CC[C@]3(C)C2CC=C2C4[C@@H](C)[C@H](C)CC[C@]4(C(=O)N4CCCN(C(=O)c5ccccc5C5=c6cc7c8c(c6Oc6c5cc5c9c6CCCN9CCC5)CCC[N+]=8CCC7)CC4)CC[C@]23C)C1(C)C` (some centres unmarked) [compound 27], the EC50 in the experiment on A375 (melanoma) (setting [8]) worked out at 0.06 ± 0.04 µM; in the experiment with HeLa (cervical cancer) it was 90 ± 60 nM; in experiment [1] (setting [9]), 0.24 ± 0.03 µM; in experiment [2] it was 0.05 ± 0.02 µM; in [7] it was 40 ± 10 nM; in experiment [3] (HT-29, 72 h, 72 h of treatment) it was 0.08 ± 0.02 µM. The molecule also gave an EC50 in experiment [5] of 0.08 ± 0.03 µM.

On to `CC(=O)O[C@H]1CC[C@@]2(C)C(CC[C@]3(C)C2CCC2C4[C@H](C(C)=O)CC[C@]4(C(=O)N4CCCN(C(=O)c5ccccc5C5=c6cc7c8c(c6Oc6c5cc5c9c6CCCN9CCC5)CCC[N+]=8CCC7)CC4)CC[C@]23C)C1(C)C` (some centres unmarked) [compound 28], for which the EC50 in the experiment on A375 (melanoma) (setting [8]) was determined as 0.2 ± 0.03 µM; with HeLa (cervical cancer), 310 ± 150 nM; in experiment [1] (setting [9]), 0.39 ± 0.05 µM; in [2] it was 0.17 ± 0.04 µM; in experiment [7] it was 120 ± 30 nM; in experiment [3] (HT-29, 72 h, 72 h of treatment) it was 0.35 ± 0.05 µM. The molecule also yielded an EC50 in experiment [5] of 0.2 ± 0.05 µM.
